The IC50 is the concentration that inhibits the measured activity by half.

Experimental findings from US20250213555A1, “SUBSTITUTED TETRAHYDROFURAN ANALOGS AS MODULATORS OF SODIUM CHANNELS” (VERTEX PHARMACEUTICALS INCORPORATED, priority 2021, published 2025) are described below.

The target of this experiment is human Nav 1.8 (Homo sapiens, UniProt Q9Y5Y9). The experiment in a line: E-VIPR assay detecting and measuring Nav inhibition properties. The experiment is classed as cell-based. Conditions: HEK cells expressing a truncated form of human Nav 1.8; compound numbers without "*" (not marked as run in the presence of human serum); read-out: measured IC50 value in the E-VIPR Assay. In a few lines: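 Nav inhibition was read by E-VIPR: cells were electrically stimulated while coumarin/oxonol FRET emissions were recorded. Cells were HEK expressing a truncated human Nav 1.8 and co-transduced with KIR2.1, and were assayed in 25% final human serum.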
Chain of human Nav 1.8 (Q9Y5Y9 126-399 limits assumed): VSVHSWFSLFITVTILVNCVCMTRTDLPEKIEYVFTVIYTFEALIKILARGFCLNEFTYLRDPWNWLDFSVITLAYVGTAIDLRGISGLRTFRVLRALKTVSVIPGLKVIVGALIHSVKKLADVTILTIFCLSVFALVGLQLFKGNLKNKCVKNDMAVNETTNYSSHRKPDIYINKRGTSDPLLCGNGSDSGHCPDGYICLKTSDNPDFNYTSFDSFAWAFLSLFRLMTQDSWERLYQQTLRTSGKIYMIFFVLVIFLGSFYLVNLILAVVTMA
Chain of human Nav 1.8 (Q9Y5Y9 660-890 limits assumed): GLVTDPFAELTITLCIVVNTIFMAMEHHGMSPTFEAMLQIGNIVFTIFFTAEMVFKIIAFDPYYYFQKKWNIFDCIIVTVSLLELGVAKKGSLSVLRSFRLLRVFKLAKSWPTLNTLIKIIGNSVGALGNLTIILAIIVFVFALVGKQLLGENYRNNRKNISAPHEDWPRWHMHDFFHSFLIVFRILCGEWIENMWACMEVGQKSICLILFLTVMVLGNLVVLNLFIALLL
Chain of human Nav 1.8 (Q9Y5Y9 1148-1722 limits assumed): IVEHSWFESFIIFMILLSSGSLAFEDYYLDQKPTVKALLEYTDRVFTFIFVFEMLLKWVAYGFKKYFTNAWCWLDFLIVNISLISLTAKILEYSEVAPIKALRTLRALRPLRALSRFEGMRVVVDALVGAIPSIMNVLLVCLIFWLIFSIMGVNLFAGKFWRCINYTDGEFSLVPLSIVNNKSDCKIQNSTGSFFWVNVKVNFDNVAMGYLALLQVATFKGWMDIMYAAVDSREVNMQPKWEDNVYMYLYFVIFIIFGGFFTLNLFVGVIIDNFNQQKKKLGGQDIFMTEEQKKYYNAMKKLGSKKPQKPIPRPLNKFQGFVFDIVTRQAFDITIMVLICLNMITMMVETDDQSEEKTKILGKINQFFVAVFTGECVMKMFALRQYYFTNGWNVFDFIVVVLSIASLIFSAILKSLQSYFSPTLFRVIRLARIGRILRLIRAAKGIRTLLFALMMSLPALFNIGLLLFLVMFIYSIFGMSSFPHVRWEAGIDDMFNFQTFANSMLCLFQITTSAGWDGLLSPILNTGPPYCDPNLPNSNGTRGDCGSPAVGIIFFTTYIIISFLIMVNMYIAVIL
For `C[C@H]1[C@@H](c2ccc(F)c(F)c2OC2CN(C)C2)[C@H](C(=O)Nc2ccnc(C(N)=O)c2)O[C@@]1(C)C(F)(F)F` [Compound 101, 4-((2R,3S,4S,5R)-3-(3,4-difluoro-2-((1-methylazetidin-3-yl)oxy)phenyl)-4,5-dimethyl-5-(trifluoromethyl)tetrahydrofuran-2-carboxamido) picolinamide], the 50% inhibitory concentration (IC50) was 10 to 100 nM.

For the compound `CC1C(c2ccc(F)c(F)c2OCC2CC(C)(O)C2)C(C(=O)Nc2ccnc(C(N)=O)c2)OC1(C)C(F)(F)F` (single isomer, unassigned) [Compound 200, rel-4-((2R*,3S*,4S*,5R*)-3-(3,4-difluoro-2-(((1s,3R)-3-hydroxy-3-methylcyclobutyl)methoxy)phenyl)-4,5-dimethyl-5-(trifluoromethyl)tetrahydrofuran-2-carboxamido)picolinamide], the half-inhibitory concentration (IC50) fell in the range of 10 to 100 nM.

For `COc1c([C@H]2[C@H](C(=O)Nc3cc(C(N)=O)ncc3[Si](C)(C)C)O[C@@](C)(C(F)(F)F)[C@H]2C)ccc(F)c1F` [Compound 23, 4-((2R,3S,4S,5R)-3-(3,4-difluoro-2-methoxyphenyl)-4,5-dimethyl-5-(trifluoromethyl)tetrahydrofuran-2-carboxamido)-5-(trimethylsilyl)picolinamide], the IC50 fell in the range of 100 to 1000 nM.

As for `C[C@H]1[C@@H](c2ccc(F)c(F)c2OCCC(C)(C)C#N)[C@H](C(=O)Nc2ccnc(C(N)=O)c2)O[C@@]1(C)C(F)(F)F` [Compound 74, 4-((2R,3S,4S,5R)-3-(2-(3-cyano-3-methylbutoxy)-3,4-difluorophenyl)-4,5-dimethyl-5-(trifluoromethyl)tetrahydrofuran-2-carboxamido)picolinamide], the IC50 lay within 10 to 100 nM.

For the compound `C[C@H]1[C@@H](c2ccc(F)c(F)c2OC/C(=N\O)C(C)(C)C)[C@H](C(=O)Nc2ccnc(C(N)=O)c2)O[C@@]1(C)C(F)(F)F` [Compound 189, 4-((2R,3S,4S,5R)-3-(3,4-difluoro-2-((Z)-2-(hydroxyimino)-3,3-dimethylbutoxy)phenyl)-4,5-dimethyl-5-(trifluoromethyl)tetrahydrofuran-2-carboxamido)picolinamide], the half-inhibitory concentration (IC50) is less than 10 nM.

`COc1c([C@H]2[C@H](C(=O)Nc3ccnc(C(=O)N4C[C@H]5C[C@@H]4CN5)c3)O[C@@](C)(C(F)(F)F)[C@H]2C)ccc(F)c1F` [Compound 254, (2R,3S,4S,5R)-N-(2-((1R,4R)-2,5-diazabicyclo[2.2.1]heptane-2-carbonyl)pyridin-4-yl)-3-(3,4-difluoro-2-methoxyphenyl)-4,5-dimethyl-5-(trifluoromethyl)tetrahydrofuran-2-carboxamide]: the 50% inhibitory concentration (IC50) is less than 10 nM.

Take `C[C@H]1[C@@H](c2ccc(F)c(F)c2OCC2(F)CN(C)C2)[C@H](C(=O)Nc2ccnc(C(N)=O)c2)O[C@@]1(C)C(F)(F)F` [Compound 105, 4-((2R,3S,4S,5R)-3-(3,4-difluoro-2-((3-fluoro-1-methylazetidin-3-yl)methoxy)phenyl)-4,5-dimethyl-5-(trifluoromethyl)tetrahydrofuran-2-carboxamido)picolinamide]: the IC50 lay in the range of 10 to 100 nM.

With `C[C@H]1[C@@H](c2ccc(F)c(F)c2OCC2(CO)CCC2)[C@H](C(=O)Nc2ccnc(C(N)=O)c2)O[C@@]1(C)C(F)(F)F` [Compound 97, 4-((2R,3S,4S,5R)-3-(3,4-difluoro-2-((1-(hydroxymethyl)cyclobutyl)methoxy)phenyl)-4,5-dimethyl-5-(trifluoromethyl)tetrahydrofuran-2-carboxamido)picolinamide], the IC50 lay in the range of 10 to 100 nM.

As for `C[C@H]1[C@@H](c2ccc(F)c(F)c2OCCc2cn(C)cn2)[C@H](C(=O)Nc2ccnc(C(N)=O)c2)O[C@@]1(C)C(F)(F)F` [Compound 85, 4-((2R,3S,4S,5R)-3-(3,4-difluoro-2-(2-(1-methyl-1H-imidazol-4-yl)ethoxy)phenyl)-4,5-dimethyl-5-(trifluoromethyl)tetrahydrofuran-2-carboxamido) picolinamide], the half-inhibitory concentration (IC50) was less than 10 nM.

As for `COCC[C@@]1(C)C[C@H](c2ccc(F)c(F)c2OC)[C@@H](C(=O)Nc2ccnc(C(N)=O)c2)O1` (single isomer, unassigned) [Compound 31], the IC50 was 100 to 1000 nM.

For `CNCCNC(=O)c1cc(NC(=O)[C@@H]2O[C@@](C)(C(F)(F)F)[C@@H](C)[C@H]2c2ccc(F)c(F)c2OC)ccn1` [Compound 231, 4-((2R,3S,4S,5R)-3-(3,4-difluoro-2-methoxyphenyl)-4,5-dimethyl-5-(trifluoromethyl)tetrahydrofuran-2-carboxamido)-N-(2-(methylamino)ethyl)picolinamide], the IC50 was less than 10 nM.

`CNC(=O)c1cc(NC(=O)[C@@H]2O[C@@](C)(C(F)(F)F)[C@@H](C)[C@H]2c2ccc(F)c(F)c2OC[C@H](C)N2CC3(COC3)C2)ccn1` [Compound 43, 4-((2R,3S,4S,5R)-3-(2-((S)-2-(2-oxa-6-azaspiro[3.3]heptan-6-yl)propoxy)-3,4-difluorophenyl)-4,5-dimethyl-5-(trifluoromethyl)tetrahydrofuran-2-carboxamido)-N-methylpicolinamide]: the half-maximal inhibitory concentration (IC50) is less than 10 nM.

With `COc1c([C@H]2[C@H](C(=O)Nc3ccnc(C(=O)NC[C@@H]4CC(F)(F)CN4C)c3)O[C@@](C)(C(F)(F)F)[C@H]2C)ccc(F)c1F` [Compound 267, N-(((S)-4,4-difluoro-1-methylpyrrolidin-2-yl)methyl)-4-((2R,3S,4S,5R)-3-(3,4-difluoro-2-methoxyphenyl)-4,5-dimethyl-5-(trifluoromethyl)tetrahydrofuran-2-carboxamido)picolinamide], the half-inhibitory concentration (IC50) was 100 to 1000 nM.

For the compound `CCOc1ccc([C@@H]2[C@@H](C(=O)Nc3ccnc(C(N)=O)c3)O[C@](C)(C(F)(F)F)[C@@H]2C)c2c1OC(F)(F)O2` (single isomer, unassigned) [Compound 209], the IC50 was no less than 1000 nM.

`COc1c([C@H]2[C@H](C(=O)Nc3ccnc(C(=O)N4C[C@H](F)[C@@H](N(C)C)C4)c3)O[C@@](C)(C(F)(F)F)[C@H]2C)ccc(F)c1F` [Compound 301, (2R,3S,4S,5R)-3-(3,4-difluoro-2-methoxyphenyl)-N-(2-((3S,4S)-3-(dimethylamino)-4-fluoropyrrolidine-1-carbonyl)pyridin-4-yl)-4,5-dimethyl-5-(trifluoromethyl)tetrahydrofuran-2-carboxamide]: the IC50 was in the range of 10 to 100 nM.

Consider `C[C@H]1[C@@H](c2cccc(Cl)c2O[C@H]2C[C@@H](O)C2)[C@H](C(=O)Nc2ccnc(C(N)=O)c2)O[C@@]1(C)C(F)(F)F` [Compound 213, 4-((2R,3S,4S,5R)-3-(3-chloro-2-((1s,3R)-3-hydroxycyclobutoxy)phenyl)-4,5-dimethyl-5-(trifluoromethyl)tetrahydrofuran-2-carboxamido) picolinamide], for which the IC50 is less than 10 nM.

On to `C[C@H]1[C@@H](c2cccc(C(F)(F)F)c2O[C@H]2C[C@@H](O)C2)[C@H](C(=O)Nc2ccnc(C(N)=O)c2)O[C@@]1(C)C(F)(F)F` [Compound 212, 4-((2R,3S,4S,5R)-3-(2-((1s,3R)-3-hydroxycyclobutoxy)-3-(trifluoromethyl)phenyl)-4,5-dimethyl-5-(trifluoromethyl)tetrahydrofuran-2-carboxamido) picolinamide], for which the half-maximal inhibitory concentration (IC50) is less than 10 nM.

On to `CO[C@@H]1CCN(CCOc2c([C@H]3[C@H](C(=O)Nc4ccnc(C(N)=O)c4)O[C@@](C)(C(F)(F)F)[C@H]3C)ccc(F)c2F)C1` [Compound 128, 4-((2R,3S,4S,5R)-3-(3,4-difluoro-2-(2-((R)-3-methoxypyrrolidin-1-yl)ethoxy)phenyl)-4,5-dimethyl-5-(trifluoromethyl)tetrahydrofuran-2-carboxamido)picolinamide], for which the IC50 was in the range of 10 to 100 nM.

Take `C[C@H]1[C@@H](c2ccc(F)c(F)c2OCCCN2CCC2)[C@H](C(=O)Nc2ccnc(C(N)=O)c2)O[C@@]1(C)C(F)(F)F` [Compound 134, 4-((2R,3S,4S,5R)-3-(2-(3-(azetidin-1-yl)propoxy)-3,4-difluorophenyl)-4,5-dimethyl-5-(trifluoromethyl)tetrahydrofuran-2-carboxamido)picolinamide]: the IC50 is 10 to 100 nM.

`COc1c([C@H]2[C@H](C(=O)Nc3ccnc(C(=O)N4CC5(CCCN5)C4)c3)O[C@@](C)(C(F)(F)F)[C@H]2C)ccc(F)c1F` [Compound 230, (2R,3S,4S,5R)-N-(2-(2,5-diazaspiro[3.4]octane-2-carbonyl)pyridin-4-yl)-3-(3,4-difluoro-2-methoxyphenyl)-4,5-dimethyl-5-(trifluoromethyl)tetrahydrofuran-2-carboxamide]: the IC50 is less than 10 nM.

With `COc1c([C@H]2[C@H](C(=O)Nc3ccnc(C(=O)NC[C@]4(C)CCCN4)c3)O[C@@](C)(C(F)(F)F)[C@H]2C)ccc(F)c1F` [Compound 233, 4-((2R,3S,4S,5R)-3-(3,4-difluoro-2-methoxyphenyl)-4,5-dimethyl-5-(trifluoromethyl)tetrahydrofuran-2-carboxamido)-N-(((S)-2-methylpyrrolidin-2-yl)methyl)picolinamide], the IC50 lay within 10 to 100 nM.

Regarding `CN[C@H]1CN(C(=O)c2cc(NC(=O)[C@@H]3O[C@@](C)(C(F)(F)F)[C@@H](C)[C@H]3c3ccc(F)c(F)c3OC)ccn2)C[C@H]1F` [Compound 292, (2R,3S,4S,5R)-3-(3,4-difluoro-2-methoxyphenyl)-N-(2-((3R,4S)-3-fluoro-4-(methylamino)pyrrolidine-1-carbonyl)pyridin-4-yl)-4,5-dimethyl-5-(trifluoromethyl)tetrahydrofuran-2-carboxamide], the half-maximal inhibitory concentration (IC50) was less than 10 nM.

With `C[C@H]1[C@@H](c2ccc(F)c(F)c2OCCN2CCC3(COC3)C2)[C@H](C(=O)Nc2ccnc(C(N)=O)c2)O[C@@]1(C)C(F)(F)F` [Compound 127, 4-((2R,3S,4S,5R)-3-(2-(2-(2-oxa-6-azaspiro[3.4]octan-6-yl)ethoxy)-3,4-difluorophenyl)-4,5-dimethyl-5-(trifluoromethyl)tetrahydrofuran-2-carboxamido)picolinamide], the IC50 was less than 10 nM.
